Test results: paper PMC4465272 (eNeuro, 2015)
“Also recorded” adds a separate entry of the source.

Columns and labels:
[1] = tested on: eEPSCs in the dorsal horn of rat spinal cord; conditions: cited from earlier work
[2] = tested on: N-type CaV (CaV2.2) current in sensory neurons; conditions: cited from earlier work
α9α10 nAChRs = conditions: cited from earlier work
[3] = tested on: GABAB receptors expressed in Xenopus laevis oocytes; conditions: cited from earlier work
[4] = tested on: nAChRs subtypes containing the α3 subunit; conditions: cited from earlier work
rat α9α10 nAChRs = format: cell-based
animal pain models = conditions: in vivo; cited from earlier work
human GABAB receptor = conditions: cited from earlier work
[5] = tested on: CaV current in rat sensory neurons (DRG); experiment: cells; format: cell-based, rat (adult male Sprague Dawley)

Vc1.1
effect on eEPSCs / EPSPs in dorsal horn [1]: does not affect excitatory neurotransmitter release; also recorded: no inhibition of EPSPs; also recorded: failed to affect
GABAB dependence of N-type CaV current inhibition [2]: requires functional GABAB receptors
reversibility of CaV current block [2]: irreversible
sensory neurons with CaV current inhibited [2]: ~75%
antagonism of α9α10 nAChRs (α9α10 nAChRs): potent antagonists
activation of GABAB receptors [3]: do not activate GABAB receptors; also recorded: failed to activate GABAB receptors
antagonism of nAChRs containing the α3 subunit [4]: weakly antagonizes
block of ACh-induced current (rat α9α10 nAChRs): 85 ± 13%
antinociceptive / analgesic effect (animal pain models): antinociceptive effects
effect on binding of [^3H]CGP-54626, a specific competitive antagonist (human GABAB receptor): failed to block binding; also recorded: Neither Vc1.1 or RgIA were able to prevent the binding
CaV current inhibition in the neuron with the largest Vc1.1 and RgIA response [5]: 41%
CaV current inhibition in the neuron with the largest baclofen response [5]: 3.5%
average CaV current inhibition in neurons with baclofen responses of 20 − 24% [5]: 4.3 ± 6.6%
enhancement of CaV current inhibition by BSA [5]: no enhancement of the CaV current inhibition was observed
inhibition of CaV current in example neuron [5]: 40%
postpulse CaV current inhibition [5]: 6.2 ± 12.5%
prepulse CaV current inhibition [5]: 6.5 ± 12.7%
recovery τ from CaV current block [5]: 0.5 ± 0.2 min
reversibility of CaV current block [5]: readily reversible; also recorded: almost full recovery from inhibition
voltage dependence of CaV current inhibition [5]: not voltage-dependent
average CaV current inhibition (as summarised in discussion) ([5]; 1 µM): 7%
average effect on CaV current (in words) ([5]; 1 µM): only minimal inhibition
neurons responding with CaV current inhibition >10% ([5]; 1 µM): 19%
